Active and inactive are the calls of the source. The calls are words filed in the database; no cut-off is given here.
How the values were obtained:
Histamine H1 receptor = Histamine H1 receptor (Cavia porcellus, UniProt P31389)
Description: Displacement of [3H]-mepyramine from histamine H1 receptor in guinea pig cerebellum homogenates incubated for 60 mins by liquid scintillation counting

Rattus norvegicus [1] = test: AUC (0 to infinity) in Sprague-Dawley rat at 1 mg/kg, iv by LC-MS/MS analysis; assay type: ADME, organism-based; design: dose 1 mg/kg, route intravenous, time infinity; details: in vivo
[2] = target: Sodium-dependent dopamine transporter (Rattus norvegicus, UniProt P23977); test: Displacement of [3H] WIN35,428 from rat striatum homogenate DAT after 8 hrs mins by liquid scintillation counting
Rattus norvegicus [3] = test: Cognitive enhancing effect in Sprague-Dawley rat assessed as effect on total exploration time for familiar objects in acquisition trial at 0.03 to 0.3 mg/kg, po administered 1 hr measured for 3 mins by novel object recognition test; assay type: functional, organism-based
[4] = Therapeutic index, ratio of ED50 for catalepsy in Kunming mouse to ED50 for MK-801-induced hyperactivity in Kunming mouse; assay type: toxicity, organism-based; details: in vivo, read-out: Ratio ED50
[5] = target: T1, 5-hydroxytryptamine receptor 1A (Rattus norvegicus, UniProt P19327)
T1 sequence (P19327 whole entry): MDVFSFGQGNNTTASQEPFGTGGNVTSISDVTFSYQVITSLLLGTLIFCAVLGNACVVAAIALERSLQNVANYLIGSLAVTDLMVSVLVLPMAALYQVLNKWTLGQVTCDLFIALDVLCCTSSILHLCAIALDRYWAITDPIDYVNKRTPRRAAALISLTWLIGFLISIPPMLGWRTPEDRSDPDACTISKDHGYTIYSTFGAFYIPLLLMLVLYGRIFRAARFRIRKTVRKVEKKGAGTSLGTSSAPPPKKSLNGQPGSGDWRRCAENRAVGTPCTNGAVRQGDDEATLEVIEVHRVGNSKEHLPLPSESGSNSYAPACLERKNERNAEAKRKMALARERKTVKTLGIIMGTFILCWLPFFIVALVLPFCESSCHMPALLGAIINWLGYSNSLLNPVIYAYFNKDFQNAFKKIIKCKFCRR

Mus musculus [6] = test: Induction of weight gain in Kunming mouse at 0.6 to 5.4 mg/kg, po administered for 28 days measured every day during compound dosing; assay type: organism-based; details: in vivo, 672 h
[7] = target: Sigma non-opioid intracellular receptor 1 (Cavia porcellus, UniProt Q60492); test: Displacement of [3H]-(+)-pentazocine from sigma1 receptor in guinea pig brain membranes after 180 mins by liquid scintillation counting; assay type: cell membranes, Membrane
Chain of Sigma non-opioid intracellular receptor 1 (Q60492 whole entry): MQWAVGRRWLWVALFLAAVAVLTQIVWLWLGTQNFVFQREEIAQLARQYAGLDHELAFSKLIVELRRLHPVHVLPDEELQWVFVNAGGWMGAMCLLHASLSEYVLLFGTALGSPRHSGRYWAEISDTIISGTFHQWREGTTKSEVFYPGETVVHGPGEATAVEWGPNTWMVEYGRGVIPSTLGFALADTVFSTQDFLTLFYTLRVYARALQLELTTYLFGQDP

D(3) dopamine receptor = D(3) dopamine receptor (Homo sapiens, UniProt P35462)
Chain of D(3) dopamine receptor (P35462 whole entry): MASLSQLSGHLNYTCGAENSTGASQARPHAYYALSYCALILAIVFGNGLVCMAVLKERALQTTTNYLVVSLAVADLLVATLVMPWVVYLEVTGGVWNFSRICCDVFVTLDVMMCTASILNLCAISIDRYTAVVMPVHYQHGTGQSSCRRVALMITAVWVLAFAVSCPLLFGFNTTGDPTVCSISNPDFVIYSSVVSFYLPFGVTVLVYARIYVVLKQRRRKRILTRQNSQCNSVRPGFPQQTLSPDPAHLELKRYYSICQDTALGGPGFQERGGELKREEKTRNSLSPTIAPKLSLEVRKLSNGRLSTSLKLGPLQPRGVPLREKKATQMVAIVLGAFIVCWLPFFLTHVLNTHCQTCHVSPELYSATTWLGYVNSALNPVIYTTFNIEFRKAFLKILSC

[8] = Displacement of [3H]-DTG from sigma2 receptor in guinea pig brain membranes after 120 mins by liquid scintillation counting; assay type: cell membranes, Cavia porcellus, Membrane
D(2) dopamine receptor [9] = target: T2, D(2) dopamine receptor (Homo sapiens, UniProt P14416); test: Agonist activity at dopamine D2 receptor long isoform (unknown origin) expressed in HEK293 cells assessed as induction of calcium flux at 10 uM after 60 min by calcium 4-dye based FLIPR assay relative to control; assay type: functional, cell-based
T2 sequence (P14416 whole entry, canonical isoform): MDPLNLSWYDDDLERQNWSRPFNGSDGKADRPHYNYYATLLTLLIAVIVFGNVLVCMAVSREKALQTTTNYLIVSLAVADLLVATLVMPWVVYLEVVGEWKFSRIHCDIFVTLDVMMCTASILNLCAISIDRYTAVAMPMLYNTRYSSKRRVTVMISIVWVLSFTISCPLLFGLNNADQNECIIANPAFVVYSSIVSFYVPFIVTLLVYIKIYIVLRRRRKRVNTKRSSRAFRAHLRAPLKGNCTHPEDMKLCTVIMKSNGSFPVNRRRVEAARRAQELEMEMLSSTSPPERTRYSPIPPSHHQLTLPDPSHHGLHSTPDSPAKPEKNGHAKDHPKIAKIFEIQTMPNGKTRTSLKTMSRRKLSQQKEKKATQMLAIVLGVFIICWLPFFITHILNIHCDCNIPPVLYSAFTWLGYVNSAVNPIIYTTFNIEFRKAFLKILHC

D(1A) dopamine receptor = D(1A) dopamine receptor (Homo sapiens, UniProt P21728); test: Antagonist activity at human dopamine D1 receptor expressed in HEK293T cells assessed as inhibition of dopamine-induced cAMP accumulation at 10 uM preincubated for 15 mins followed by dopamine induction and measured after 30 mins by HTRF assay; assay type: functional, cell-based
Chain of D(1A) dopamine receptor (P21728 whole entry): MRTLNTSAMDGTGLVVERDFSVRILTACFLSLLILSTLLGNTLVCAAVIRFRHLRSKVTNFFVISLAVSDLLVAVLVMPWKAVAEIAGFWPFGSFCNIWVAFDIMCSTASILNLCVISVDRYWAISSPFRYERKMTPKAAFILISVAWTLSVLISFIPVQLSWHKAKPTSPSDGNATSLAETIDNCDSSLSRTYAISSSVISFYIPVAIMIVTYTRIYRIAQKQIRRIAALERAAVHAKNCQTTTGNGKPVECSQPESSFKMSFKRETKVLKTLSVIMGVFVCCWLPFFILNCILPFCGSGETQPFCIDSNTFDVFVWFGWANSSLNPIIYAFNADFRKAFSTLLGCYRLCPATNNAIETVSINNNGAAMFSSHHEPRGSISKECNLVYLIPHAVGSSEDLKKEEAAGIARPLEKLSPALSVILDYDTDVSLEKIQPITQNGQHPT

[10] = Therapeutic index, ratio of ED50 for catalepsy in Kunming mouse to ED50 for apomorphine-induced climbing in Kunming mouse; assay type: toxicity, organism-based; details: in vivo, read-out: Ratio ED50
Mus musculus [11] = species: Mus musculus; test: animal or person; details: Kunming, po
Description: (§1) Antipsychotic activity in po dosed Kunming mouse assessed as reduction in apomorphine-induced climbing pretreated for 30 mins followed by apomorphine injection measured at 10 to 30 mins post dose

[12] = target: 5-hydroxytryptamine receptor 6 (Homo sapiens, UniProt P50406)
[13] = Displacement of [3H] nisoxetine from NET in rat hippocampal membrane homogenates after 8 hrs by liquid scintillation counting; assay type: cell membranes
[14] = target: 5-hydroxytryptamine receptor 1A (Homo sapiens, UniProt P08908)
Chain of 5-hydroxytryptamine receptor 1A (Homo sapiens, UniProt P08908) (P08908 whole entry): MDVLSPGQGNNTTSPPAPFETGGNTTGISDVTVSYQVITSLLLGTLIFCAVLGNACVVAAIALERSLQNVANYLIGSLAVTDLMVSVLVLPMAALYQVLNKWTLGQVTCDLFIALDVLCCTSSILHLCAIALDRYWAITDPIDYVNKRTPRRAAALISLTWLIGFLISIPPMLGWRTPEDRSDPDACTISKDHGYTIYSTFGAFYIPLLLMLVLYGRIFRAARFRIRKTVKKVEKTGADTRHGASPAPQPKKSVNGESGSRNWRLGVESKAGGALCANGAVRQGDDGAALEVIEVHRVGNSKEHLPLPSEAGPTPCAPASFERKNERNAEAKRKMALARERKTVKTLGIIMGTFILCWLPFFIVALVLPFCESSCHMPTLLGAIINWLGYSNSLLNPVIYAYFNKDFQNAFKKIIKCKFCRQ

Rattus norvegicus [15] = test: Cognitive enhancing effect in Sprague-Dawley rat assessed as increase in total exploration time for novel objects in retention trial at 0.1 to 0.3 mg/kg, po administered 1 hr prior to acquisition trial measured 24 hrs post acquisition trial for 5 mins by novel object recognition test; assay type: functional, organism-based
Rattus norvegicus [16] = test: Antipsychotic activity in po dosed Sprague-Dawley rat assessed as reduction in conditioned avoidance response measured at 90 mins post single dose; assay type: functional; details: 1.5 h
[17] = target: Voltage-gated inwardly rectifying potassium channel KCNH2 (Homo sapiens, UniProt Q12809)
Chain of Voltage-gated inwardly rectifying potassium channel KCNH2 (Q12809 whole entry, canonical isoform): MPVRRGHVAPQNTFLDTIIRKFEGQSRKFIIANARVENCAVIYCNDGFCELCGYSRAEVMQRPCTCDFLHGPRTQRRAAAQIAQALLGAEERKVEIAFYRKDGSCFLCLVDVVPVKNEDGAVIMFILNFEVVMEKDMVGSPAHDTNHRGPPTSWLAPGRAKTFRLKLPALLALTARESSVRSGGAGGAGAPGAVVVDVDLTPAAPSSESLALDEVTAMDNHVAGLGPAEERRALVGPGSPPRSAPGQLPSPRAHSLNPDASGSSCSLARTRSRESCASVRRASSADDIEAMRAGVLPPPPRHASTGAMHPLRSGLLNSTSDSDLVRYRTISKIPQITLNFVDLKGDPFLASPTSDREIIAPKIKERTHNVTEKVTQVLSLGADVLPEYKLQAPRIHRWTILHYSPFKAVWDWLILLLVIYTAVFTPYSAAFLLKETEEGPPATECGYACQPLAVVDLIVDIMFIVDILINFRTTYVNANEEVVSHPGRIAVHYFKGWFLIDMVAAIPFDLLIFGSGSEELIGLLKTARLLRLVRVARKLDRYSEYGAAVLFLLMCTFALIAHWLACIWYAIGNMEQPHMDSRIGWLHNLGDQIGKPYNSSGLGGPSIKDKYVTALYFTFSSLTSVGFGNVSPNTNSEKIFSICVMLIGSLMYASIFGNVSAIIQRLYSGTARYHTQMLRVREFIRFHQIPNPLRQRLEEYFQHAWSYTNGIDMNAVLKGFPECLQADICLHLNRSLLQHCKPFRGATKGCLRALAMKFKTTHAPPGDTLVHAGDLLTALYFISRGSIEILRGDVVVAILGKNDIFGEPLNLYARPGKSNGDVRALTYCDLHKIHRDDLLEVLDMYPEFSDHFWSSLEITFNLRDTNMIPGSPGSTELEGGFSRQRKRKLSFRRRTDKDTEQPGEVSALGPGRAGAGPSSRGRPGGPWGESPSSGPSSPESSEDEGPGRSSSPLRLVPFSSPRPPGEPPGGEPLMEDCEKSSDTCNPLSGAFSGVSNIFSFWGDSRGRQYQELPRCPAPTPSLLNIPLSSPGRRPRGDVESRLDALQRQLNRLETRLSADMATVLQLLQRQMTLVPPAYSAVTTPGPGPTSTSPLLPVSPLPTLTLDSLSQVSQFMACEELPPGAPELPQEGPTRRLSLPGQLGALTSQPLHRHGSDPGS
Description: Inhibition of human ERG expressed in HEK293 cells at -50 mV holding potential by patch clamp assay

D(2) dopamine receptor [18] = target: T2, D(2) dopamine receptor; test: Antagonist activity at dopamine D2 receptor long isoform (unknown origin) expressed in HEK293 cells assessed as inhibition of dopamine-induced calcium flux at 10 uM after 15 mins by calcium 4-dye based FLIPR assay relative to control; assay type: functional, cell-based
Rattus norvegicus [19] = test: Cognitive enhancing effect in Sprague-Dawley rat assessed as increase in total exploration time for novel objects in retention trial at 0.03 mg/kg, po administered 1 hr prior to acquisition trial measured 24 hrs post acquisition trial for 5 mins by novel object recognition test; assay type: functional, organism-based
[20] = target: 5-hydroxytryptamine receptor 2A (Rattus norvegicus, UniProt P14842); test: Displacement of [3H]-ketanserine from serotonin 5-HT2A receptor in rat brain cortex homogenates incubated for 30 mins by liquid scintillation counting
Chain of 5-hydroxytryptamine receptor 2A (Rattus norvegicus, UniProt P14842) (P14842 whole entry): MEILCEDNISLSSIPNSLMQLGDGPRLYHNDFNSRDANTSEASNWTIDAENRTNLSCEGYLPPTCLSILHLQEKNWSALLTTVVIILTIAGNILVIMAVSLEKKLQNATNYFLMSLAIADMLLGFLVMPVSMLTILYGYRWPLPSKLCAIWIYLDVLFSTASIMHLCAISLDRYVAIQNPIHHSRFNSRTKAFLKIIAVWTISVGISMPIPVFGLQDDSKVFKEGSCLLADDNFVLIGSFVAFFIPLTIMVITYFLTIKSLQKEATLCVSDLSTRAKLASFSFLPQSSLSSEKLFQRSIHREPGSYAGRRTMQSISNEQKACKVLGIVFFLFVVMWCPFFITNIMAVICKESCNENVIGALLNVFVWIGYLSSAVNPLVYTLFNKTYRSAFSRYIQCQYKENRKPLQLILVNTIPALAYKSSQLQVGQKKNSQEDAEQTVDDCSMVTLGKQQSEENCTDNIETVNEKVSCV

[21] = target: 5-hydroxytryptamine receptor 2A (Homo sapiens, UniProt P28223); test: Agonist activity at serotonin 5-HT2A receptor (unknown origin) expressed in HEK293 cells assessed as induction of calcium flux at 10 uM after 60 mins by calcium 4-dye based FLIPR assay relative to control; assay type: functional, cell-based
Chain of 5-hydroxytryptamine receptor 2A (Homo sapiens, UniProt P28223) (P28223 whole entry): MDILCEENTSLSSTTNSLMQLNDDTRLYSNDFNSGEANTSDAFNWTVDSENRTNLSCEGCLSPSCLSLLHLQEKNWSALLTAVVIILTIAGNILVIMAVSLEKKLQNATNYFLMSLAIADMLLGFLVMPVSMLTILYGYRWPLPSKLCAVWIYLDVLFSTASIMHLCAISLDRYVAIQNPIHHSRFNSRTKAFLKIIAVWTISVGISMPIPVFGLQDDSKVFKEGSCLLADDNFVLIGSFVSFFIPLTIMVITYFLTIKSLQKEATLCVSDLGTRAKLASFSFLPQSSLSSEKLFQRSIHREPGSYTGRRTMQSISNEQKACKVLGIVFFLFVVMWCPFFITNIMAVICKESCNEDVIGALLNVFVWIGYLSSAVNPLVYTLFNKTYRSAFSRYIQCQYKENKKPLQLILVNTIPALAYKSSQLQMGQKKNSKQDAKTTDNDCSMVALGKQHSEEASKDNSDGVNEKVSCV

Glutamate NMDA receptor = test: Displacement of [3H] glycine from NMDA receptor in rat hippocampal membrane homogenates after 30 mins by liquid scintillation counting; assay type: cell membranes
[22] = Acute toxicity in po dosed Kunming mouse assessed as mortality measured after 24 hrs post dose; assay type: organism-based; details: in vivo
Rattus norvegicus [23] = test: Cognitive enhancing effect in Sprague-Dawley rat assessed as increase in novelty discrimination index in retention trial at 0.3 mg/kg, po administered 1 hr prior to acquisition trial measured 24 hrs post acquisition trial for 5 mins by novel object recognition test; assay type: functional, organism-based
Mus musculus [24] = details: Kunming
Description: as §1

D(2) dopamine receptor [25] = target: D(2) dopamine receptor (Rattus norvegicus, UniProt P61169)
Chain of D(2) dopamine receptor (Rattus norvegicus, UniProt P61169) (P61169 whole entry): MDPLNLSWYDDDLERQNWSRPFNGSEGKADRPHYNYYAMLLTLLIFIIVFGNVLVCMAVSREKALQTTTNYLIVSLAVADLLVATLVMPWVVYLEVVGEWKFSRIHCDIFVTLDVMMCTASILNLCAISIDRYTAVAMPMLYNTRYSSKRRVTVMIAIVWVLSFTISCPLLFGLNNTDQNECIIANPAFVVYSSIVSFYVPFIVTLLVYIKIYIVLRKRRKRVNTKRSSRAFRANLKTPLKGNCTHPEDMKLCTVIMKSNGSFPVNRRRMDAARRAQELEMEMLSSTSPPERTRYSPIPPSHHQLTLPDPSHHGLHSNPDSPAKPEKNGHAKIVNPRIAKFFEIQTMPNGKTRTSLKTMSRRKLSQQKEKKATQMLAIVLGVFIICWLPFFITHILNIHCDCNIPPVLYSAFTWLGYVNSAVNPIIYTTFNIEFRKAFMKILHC

Mus musculus [26] = species: Mus musculus; test: animal or person; details: Kunming, po; remark: listed apart in the source
Description: Antipsychotic activity in po dosed Kunming mouse assessed as reduction in MK-801-induced hyperactivity pretreated for 60 mins followed by MK-801 challenge measured for 90 mins

[27] = Half life in Sprague-Dawley rat at 10 mg/kg, po by LC-MS/MS analysis; assay type: ADME, organism-based; details: in vivo
[28] = AUC (0 to infinity) in Sprague-Dawley rat at 10 mg/kg, po by LC-MS/MS analysis; assay type: ADME, organism-based; design: dose 10 mg/kg, route oral, time infinity; details: in vivo
[29] = Half life in Sprague-Dawley rat at 1 mg/kg, iv by LC-MS/MS analysis; assay type: ADME, organism-based; details: in vivo

Chain of Histamine H1 receptor (P31389 whole entry): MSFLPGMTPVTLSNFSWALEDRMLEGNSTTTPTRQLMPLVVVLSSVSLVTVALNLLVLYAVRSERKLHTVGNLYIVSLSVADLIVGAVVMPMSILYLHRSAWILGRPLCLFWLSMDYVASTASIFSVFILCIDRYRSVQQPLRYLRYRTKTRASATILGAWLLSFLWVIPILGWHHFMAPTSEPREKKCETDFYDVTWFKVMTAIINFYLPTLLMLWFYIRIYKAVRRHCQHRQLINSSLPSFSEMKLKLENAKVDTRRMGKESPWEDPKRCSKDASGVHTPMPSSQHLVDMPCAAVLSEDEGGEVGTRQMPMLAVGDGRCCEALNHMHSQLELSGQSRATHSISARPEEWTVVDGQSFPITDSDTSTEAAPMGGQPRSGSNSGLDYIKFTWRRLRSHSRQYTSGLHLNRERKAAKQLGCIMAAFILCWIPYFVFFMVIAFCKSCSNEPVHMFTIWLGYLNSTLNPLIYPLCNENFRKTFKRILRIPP

## O=C(CCCCN1CCC(c2noc3cc(F)ccc23)CC1)c1cc2c3c(c1)CCN3C(=O)CC2
Histamine H1 receptor
  Ki: 630 nM
Rattus norvegicus [1]
  AUC: 3151.2 ng·h/mL
[2]
  Ki: > 1000 nM
Rattus norvegicus [3]
  Activity: inactive
[4]
  selectivity ratio: 302
[5]
  Ki: 8.6 nM
Mus musculus [6]
  Activity: Non-Toxic
[7]
  Ki: > 1000 nM
D(3) dopamine receptor
  IC50: 25.6 nM
[8]
  Ki: > 1000 nM
D(2) dopamine receptor [9]
  Activity: 9.8%
D(1A) dopamine receptor
  inhibition: > 90%
[10]
  selectivity ratio: 129
Mus musculus [11]
  ED50: 0.61 mg/kg
[12]
  IC50: 178 nM
[13]
  Ki: > 1000 nM
[14]
  IC50: 588 nM
Rattus norvegicus [15]
  Activity: Active
Rattus norvegicus [16]
  ED50: 1.46 mg/kg
[17]
  IC50: 2910 nM
D(2) dopamine receptor [18]
  inhibition: 93.3%
Rattus norvegicus [19]
  Activity: inactive
[20]
  Ki: 0.72 nM
[21]
  Activity: 0.6%
Glutamate NMDA receptor
  Ki: > 1000 nM
[22]
  LD50 at 24 h: > 2000 mg/kg
Rattus norvegicus [23]
  Activity: Active
Mus musculus [24]
  Activity: Dose-dependent effect
D(2) dopamine receptor [25]
  Ki: 2.9 nM
Mus musculus [26]
  ED50: 0.26 mg/kg
[27]
  half-life: 2.02 h
[28]
  AUC(0-inf): 18500 ng·h/mL
[29]
  half-life: 2.15 h
